≈ marks a conversion by molar mass, not a printed value. Like-named read-outs stand apart in the source and are kept apart here.

Data set [1] relates to CYP isozymes (IC50s averaged over the isozymes). Put plainly: CYP Enzymatic Inhibition Assay in human liver microsomes. In general terms: Liver microsomes are vesicles of endoplasmic reticulum, rich in cytochrome P450 enzymes.
The test system of data set [2] is drug-sensitive cell lines of Table 2 (EFM-19, MDA-MB-453, T-47D, ZR-75-1, NCI-H441, OVTOKO, NCI-H1838). Nature of the data set: Cell Line Growth Retardation Assay, sensitive cohort. The format is cell-based, human. The settings on record: for IC50: Homo sapiens, geometric mean over sensitive cohort, 6 days growth, read-out: AvgSensIC50; for Ther Window: average IC50 drug-resistant group divided by average IC50 drug-sensitive group. Put shortly:
(§1)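 Cells rested 24 h, then exposed 6 days to compound at 10, 2, 0.4, 0.08, 0.016 and 0.0032 μM; counted by imaging on day 0 and day 6. Growth inhibition as ratio of population doublings versus vehicle; IC50 from curve fits, cohort values as geometric means.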

The nature of data set [3]: Measurement of Compound Metabolic Stability in hepatocytes.
Protocol: The metabolic stability of compounds was determined in hepatocytes from mice and rats. Compounds were diluted to 5 μM in Williams' Medium E from 10 mM stock solutions. 10 μL of each compound was aliquoted into a well of a 96-well plate and reactions were started by aliquoting 40 μL of a 625,000 cells/mL suspension into each well. The plate was incubated at 37° C. with 5% CO2. At each corresponding time point, the reaction was stopped by quenching with ACN containing internal standards (IS) at a 1:3. Plates were shaken at 500 rpm for 10 min, and then centrifuged at 3,220×g for 20 minutes. Supernatants were transferred to another 96-well plate containing a dilution solution. Supernatants were analyzed by LC/MS/MS. Compound half-life was estimated using the following equation:
The conditions of data set [4]: mouse, in vivo, po. On the procedure: For maximum tolerated dose (MTD) determination studies, non-tumor bearing CD-athymic nude mice were randomized into 5 treatment groups (5 mice per group) and treated with either 500, 400, 300, 200, or 100 mg/kg of compound by daily PO. Mice were weighed daily and % body weight loss was calculated relative to individual mouse body weights at the start of treatment. […] MTD was determined as the highest dose at which a mean body weight loss of <10% over 14 days of dosing was observed.

Data set [5] is described as follows: Exploratory mouse PK study, single doses PO vs IP. The settings on record: single dose 8.3 mg/kg; for half-life: vs abemaciclib. Format: in vivo. On the procedure: Untreated samples were collected from vehicle control animals. For plasma preparation, whole blood was collected into EDTA-treated tubes. Cells were removed from plasma by centrifugation for 10 minutes at 1,000-2,000×g using a refrigerated centrifuge. The plasma fraction was removed and stored at −80° C.
In order to determine amount (ng/ml) of compound in peripheral circulation, plasma samples were analyzed by mass spectrometry […]. For this analysis, 20 μL of plasma sample was mixed with two volumes of ice-cold internal standard solution (ISS), and centrifuged at 6,100 g for 30 minutes. ISS contained acetonitrile with 100 ng/mL compound, 50 ng/mL dextromethorphan and 50 ng/mL imipramine. Aliquots of the supernatant was transferred to an autosampler plate and diluted with two volumes of 0.2% formic acid in water. Specific analyte concentrations were determined against a standard curve (10,000-5 ng/ml), and mean concentrations+/−standard deviation were calculated.

For the next data set, the target named is CDK6 (Homo sapiens (Human), UniProt Q00534). Put plainly: Cdk4 and 6 Enzymatic Inhibition Assay (radiometric 33PanQinase, Ki determination). Format: biochemical. Put shortly: (§2)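 Radiometric 33PanQinase assay in 70 mM HEPES-NaOH pH 7.5 with 3 mM MgCl2, 3 mM MnCl2, [γ-33P]-ATP, kinase and substrate; 60 min at 30° C, 1% DMSO final. Ten final concentrations from 2×10^−6 M to 6×10^−11 M; 33Pi incorporation counted by scintillation after H3PO4 stop.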
CDK6, sequence (Q00534 whole entry): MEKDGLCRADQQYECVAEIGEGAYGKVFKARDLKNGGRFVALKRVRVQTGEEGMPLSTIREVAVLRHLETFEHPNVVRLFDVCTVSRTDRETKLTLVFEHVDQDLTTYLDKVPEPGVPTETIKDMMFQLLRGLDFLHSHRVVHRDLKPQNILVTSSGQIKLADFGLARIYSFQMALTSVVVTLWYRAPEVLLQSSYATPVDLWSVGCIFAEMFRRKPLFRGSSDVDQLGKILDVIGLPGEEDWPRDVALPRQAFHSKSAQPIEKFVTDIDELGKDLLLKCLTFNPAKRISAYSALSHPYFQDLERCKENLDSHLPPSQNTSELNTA
CDK6, sequence (P24385 whole entry partner): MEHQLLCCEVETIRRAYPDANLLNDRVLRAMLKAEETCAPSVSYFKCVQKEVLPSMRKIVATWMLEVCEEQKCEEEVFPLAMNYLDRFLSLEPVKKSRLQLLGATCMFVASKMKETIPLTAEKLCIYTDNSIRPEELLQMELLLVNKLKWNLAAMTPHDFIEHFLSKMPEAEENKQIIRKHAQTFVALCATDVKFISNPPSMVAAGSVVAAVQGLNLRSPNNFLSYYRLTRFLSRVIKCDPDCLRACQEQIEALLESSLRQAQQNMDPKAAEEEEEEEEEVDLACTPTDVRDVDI

Another data set addresses CDK4 (Homo sapiens (Human), UniProt P11802). Described as above. The format is biochemical. An outline of the steps:
as §2

Data set [6] can be described thus: Compound Solubility Assay (kinetic solubility). The format is physicochemical. The note with it: kinetic from dmso stock. On the procedure: The relative kinetic solubility of each compound was determined at both low (1.2) and neutral (7.4) pH. Compounds were prepared at 10 mM stocks. […] Compounds were allowed to shake at room temperature for 24 hours in 50 mM phosphate buffer pH 7.4, or in SGF buffer pH 1.2 at 37° C. for 24 hours.

The nature of data set [7]: Caco-2 Assay (Papp A to B). The note with it: human, Caco-2, pH 7.4.
The target in the next data set is hERG potassium channels (Homo sapiens (Human), UniProt Q12809). Put plainly: hERG Inhibition Assay (QPatch automated patch clamp, CHO cells). The note with it: percent of control current.
hERG potassium channels, sequence (Q12809 whole entry): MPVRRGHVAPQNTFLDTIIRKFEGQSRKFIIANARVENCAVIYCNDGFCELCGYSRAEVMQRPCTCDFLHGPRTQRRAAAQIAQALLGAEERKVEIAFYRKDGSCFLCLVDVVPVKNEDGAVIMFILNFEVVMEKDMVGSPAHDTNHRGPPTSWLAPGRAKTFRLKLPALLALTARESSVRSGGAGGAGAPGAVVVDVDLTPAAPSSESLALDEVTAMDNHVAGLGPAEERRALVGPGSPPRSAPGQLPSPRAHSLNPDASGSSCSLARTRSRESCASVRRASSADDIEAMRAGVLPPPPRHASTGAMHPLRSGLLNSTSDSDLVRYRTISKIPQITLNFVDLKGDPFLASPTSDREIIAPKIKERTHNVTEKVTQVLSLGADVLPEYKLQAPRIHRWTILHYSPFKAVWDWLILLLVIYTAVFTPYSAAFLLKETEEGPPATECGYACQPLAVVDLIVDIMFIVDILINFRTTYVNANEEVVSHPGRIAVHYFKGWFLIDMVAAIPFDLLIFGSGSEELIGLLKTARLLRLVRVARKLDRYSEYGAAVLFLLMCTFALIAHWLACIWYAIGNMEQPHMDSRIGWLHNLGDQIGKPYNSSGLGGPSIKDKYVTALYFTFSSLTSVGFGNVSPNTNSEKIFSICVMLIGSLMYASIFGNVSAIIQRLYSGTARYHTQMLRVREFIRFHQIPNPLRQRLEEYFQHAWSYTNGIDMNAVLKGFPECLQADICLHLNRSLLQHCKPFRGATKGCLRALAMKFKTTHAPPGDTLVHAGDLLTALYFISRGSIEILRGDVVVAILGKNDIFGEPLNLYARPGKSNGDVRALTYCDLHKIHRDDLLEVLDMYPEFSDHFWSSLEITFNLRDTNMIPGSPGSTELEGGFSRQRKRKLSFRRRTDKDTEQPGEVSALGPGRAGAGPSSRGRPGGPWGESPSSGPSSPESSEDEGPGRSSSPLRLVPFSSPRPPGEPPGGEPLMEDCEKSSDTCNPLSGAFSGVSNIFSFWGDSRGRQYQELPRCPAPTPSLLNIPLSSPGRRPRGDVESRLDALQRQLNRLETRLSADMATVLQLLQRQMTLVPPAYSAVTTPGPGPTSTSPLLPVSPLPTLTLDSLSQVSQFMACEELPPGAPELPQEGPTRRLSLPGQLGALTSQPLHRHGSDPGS
Data set [8] relates to drug-resistant cell lines of Table 2 (NCI-H1437, OV207, HCC1806, NCI-H2172). Nature of the data set: Cell Line Growth Retardation Assay, resistant cohort. The format is cell-based, human. The note with it: Homo sapiens, […], geometric mean over resistant cohort; 6 days growth; read-out: AvgResIC50. An outline of the steps: as §1
Setting [9] is: 50 mM phosphate buffer, pH 7.4, aqueous buffer, read-out: KS7.
[10] abbreviates: simulated gastric fluid, kinetic solubility, SGF buffer pH 1.2, 37° C., 24 hours, read-out: KS1.

CDK4, sequence (P11802 whole entry): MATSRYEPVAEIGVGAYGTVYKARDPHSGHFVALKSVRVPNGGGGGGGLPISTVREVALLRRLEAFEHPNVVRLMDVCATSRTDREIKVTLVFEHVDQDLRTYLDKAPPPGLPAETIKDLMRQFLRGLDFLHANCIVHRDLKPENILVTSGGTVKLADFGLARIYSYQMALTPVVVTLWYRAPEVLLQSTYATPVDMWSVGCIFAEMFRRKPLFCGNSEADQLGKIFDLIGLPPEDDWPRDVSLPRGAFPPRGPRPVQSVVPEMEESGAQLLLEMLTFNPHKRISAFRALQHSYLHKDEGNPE
CDK4, sequence (P24385 whole entry partner): as the sequence (P24385 whole entry partner) above
Protocol for hERG potassium channels: Effects of compounds on hERG potassium channel conductance was assessed using the automated patch clamp method QPatch^HTX. Compounds were prepared at 10 mM stocks. CHO cells stably expressing hERG potassium channels were used for this assay. Cells were cultured in a humidified and air-controlled 5% CO2) incubator at 37° C. Compound stocks and the positive control Amitriptyline were dissolved in 100% DMSO to make various solution concentrations. These solutions were further diluted into extracellular solution to achieve final concentrations for testing. The final DMSO concentration in extracellular solution was 0.30%. The hERG QPatch^HTX assay was conducted at room temperature.
The following voltage command protocol was used: • From the holding potential of −80 mV, the voltage was first stepped to −50 mV for 80 ms for leak subtraction, and then stepped to +20 mV for 4,800 ms to open hERG channels. • After which, the voltage was stepped back down to −50 mV for 5,000 ms, causing a “rebound” or tail current, which was measured and collected for data analysis. • Finally, the voltage was stepped back to the holding potential of −80 mV for 3,100 ms.
For each experiment, three additions of 5 μL of the vehicle were applied, followed by 30 runs of the voltage command protocol for a baseline period. Then, the ascending doses of each compound were added with three repetitions (5 μL of compound each time).

`Cc1nc2c(F)cc(-c3nc(Nc4ccc(CN5CCO[C@@](C)(CCN(C)C)C5)cn4)ncc3F)cc2n1C(C)C` [Compound A1, (S)—N-(5-((2-(2-(dimethylamino)ethyl)-2-methylmorpholino)methyl)pyridin-2-yl)-5-fluoro-4-(4-fluoro-1-isopropyl-2-methyl-1H-benzo[d]imidazol-6-yl)pyrimidin-2-amine]: in [1], the IC50 at 10 min came out at 38 µM. In data set [2], the IC50 amounted to 90 nM and the “Ther Window” value is recorded as 4.25. In [3], the half-life (in general, the time needed for the level to fall by half in the phase considered) at 1 μM turned out to be 152 min. Besides, the maximum tolerated dose entry in data set [4] is “less than 400 mg/kg QD”. Also, in data set [5], the Cmax entry is on record as “low Cmax”, the metabolism entry was “slow metabolism” and the half-life result was “longer half-life as compared to abemaciclib”. In addition, the affinity on CDK6 corresponds to a Ki of 2.9 nM. The Ki (usually a measure of affinity in units of concentration, obtained from inhibition or displacement) on CDK4 worked out at 0.65 nM. Further, the solubility kinetic at 24 h in data set [6] (setting [9]) is 42.5 µM (≈ 24 µg/mL). Also, in data set [6] (setting [10]), the solubility kinetic at 24 h was 200 µM (≈ 113 µg/mL). For the same compound, in data set [7], the Papp A→B (usually the apparent permeability from the apical to the basolateral side of a cell layer) at 2 h, 2 μM amounted to 0.08 ×10⁻⁶ cm/s. Moreover, the hERG on hERG potassium channels is on record as 18.98%. In [8], the IC50 is 400 nM.
In data set [1], `Cc1nc2c(F)cc(-c3nc(Nc4ccc(CN5CCO[C@](C)(CCN(C)C)C5)cn4)ncc3F)cc2n1C(C)C` [Compound A2] showed an IC50 at 10 min of 40.2 µM. In addition, in [2], the IC50 was determined as 100 nM and the “Ther Window” value is reported as 9.95. The compound further yielded a half-life at 1 μM in data set [3] of 78.5 min. Moreover, the maximum tolerated dose in data set [4] was 278-399 mg/kg QD. Also, in data set [5], the Cmax entry is listed as “low Cmax”, the metabolism result is “slow metabolism” and the half-life entry was “longer half-life as compared to abemaciclib”. The compound also came in with an inhibition constant Ki at CDK6 of 3.38 nM. This compound also yielded a Ki at CDK4 of 0.72 nM. Moreover, the solubility kinetic at 24 h in data set [6] (setting [9]) amounted to 31.4 µM (≈ 17.7 µg/mL). Also, in data set [6] (setting [10]), the solubility kinetic at 24 h was 200 µM (≈ 113 µg/mL). Besides, in data set [7], the Papp A→B at 2 h, 2 μM is 0.11 ×10⁻⁶ cm/s. This compound registered a hERG at hERG potassium channels of 26.05%. Moreover, the IC50 in data set [8] came out at 970 nM.
In the case of `Cc1nc2c(F)cc(-c3nc(Nc4ccc(CN5CCO[C@@](C)(C[C@H](C)N(C)C)C5)cn4)ncc3F)cc2n1C(C)C` [Compound A23], in [1], the IC50 at 10 min amounted to 64.7 µM. The results for the IC50 in data set [2] and in data set [8] were 120 nM and 990 nM, respectively. Further, the “Ther Window” value in [2] is on record as 8.44. The compound further had a half-life at 1 μM in data set [3] of 76.4 min. In addition, the maximum tolerated dose result in [4] is on record as “about 200 mg/kg QD”. The Ki at CDK6 worked out at 6.47 nM; at CDK4, 1.09 nM. Moreover, the solubility kinetic at 24 h in [6] (setting [9]) was 133 µM (≈ 77.1 µg/mL); in data set [6] (setting [10]), 198 µM (≈ 114 µg/mL). Further, in data set [7], the Papp A→B at 2 h, 2 μM turned out to be 0.32 ×10⁻⁶ cm/s. In addition, the hERG at hERG potassium channels is reported as 15.77%.
`Cc1nc2c(F)cc(-c3nc(Nc4ccc(CN5CCO[C@](C)(CCO)C5)cn4)ncc3F)cc2n1C(C)C` [Compound A49, (R)-2-(4-((6-((5-fluoro-4-(4-fluoro-1-isopropyl-2-methyl-1H-benzo[d]imidazol-6-yl)pyrimidin-2-yl)amino)pyridin-3-yl)methyl)-2-methylmorpholin-2-yl)ethan-1-ol]: in data set [2], the IC50 amounted to 150 nM and the “Ther Window” value is 5.76. In [5], the Cmax result is “high Cmax” and the metabolism entry is given as “rapid metabolism”. This compound registered a Ki on CDK6 of 7.46 nM. The compound further displayed a Ki at CDK4 of 1.09 nM. Further, the IC50 in data set [8] worked out at 890 nM.
In [1], `Cc1nc2c(F)cc(-c3nc(Nc4ccc(CN5CC6(C5)CS(=O)(=O)C6)cn4)ncc3F)cc2n1C(C)C` [Compound A62, 6-((6-((5-fluoro-4-(4-fluoro-1-isopropyl-2-methyl-1H-benzo[d]imidazol-6-yl)pyrimidin-2-yl)amino)pyridin-3-yl)methyl)-2-thia-6-azaspiro[3.3]heptane 2,2-dioxide] came in with an IC50 at 10 min of 33.9 µM. Besides, the IC50 in [2] is 90 nM; in data set [8], 730 nM. For the same compound, in data set [2], the “Ther Window” value is 8.11. Also, the half-life at 1 μM in [3] was 33.9 min. Besides, the Ki was determined as 3.8 nM on CDK6 and 0.59 nM on CDK4. The solubility kinetic at 24 h in [6] (setting [9]) is 1 µM (≈ 0.54 µg/mL); in [6] (setting [10]), 190 µM (≈ 103 µg/mL). In [7], this compound registered a Papp A→B at 2 h, 2 μM of 0.15 ×10⁻⁶ cm/s. The compound also showed a hERG at hERG potassium channels of 40.8%.
